Data on 1 compound can be found in patent US11291750B2, “Hydrogel condom” (THE TEXAS A & M UNIVERSITY SYSTEM, priority 2016, dated 2022).

The conditions of data set [1]: 'as known'; cited from earlier work.
The nature of data set [2]: Aqueous solubility of quercetin without and with sulfated beta-cyclodextrin (UV absorbance at 375 nm). The class given is physicochemical. The conditions noted are these: aqueous sulfated beta-cyclodextrin solution, aqueous with cosolvent or surfactant or cyclodextrin. The text has this: FIG. 8 depicts a graph of sulfated beta-cyclodextrin formed 1:1 complex with antioxidant quercetin, showing quercetin can be encapsulated in the gel. […] In the presence of sulfated beta-cyclodextrin, the absorbance increased. The sulfated beta-cyclodextrin can form 1:1 complex with quercetin through host-guest chemistry. […] Embedment of quercetin in hydrogel and its release: The sulfated beta-cyclodextrin in the crosslinked polymer hydrogel allows drug molecules, even hydrophobic compounds, to incorporate into it through host-guest interaction. An encapsulated-quercetin hydrogel film was prepared (FIG. 8). […] The high equilibrium binding constant of the sulfated β-cyclodextrin/quercetin complex (Kf=2.53×10^4 M^−1 at 25° C.) permits encapsulation of high concentration of quercetin in gel. The fabrication of the quercetin hydrogel is similar to that mentioned above, except for alternative sulfated beta-cyclodextrin with 1:1 sulfated beta-cyclodextrin/quercetin complex. The resultant hydrogel attained similar high fracture toughness and stretching ability in the presence of quercetin (FIG. 9).

Structures are written as SMILES. Converted amounts (≈) assume the structure as drawn.

One may read the solubility as how much of the substance goes into solution per volume. High values mean much dissolved substance, low ones little dissolved substance. For the compound `O=c1c(O)c(-c2ccc(O)c(O)c2)oc2cc(O)cc(O)c12` [quercetin], the solubility in water in data set [1] was approximately 1.3 µM (≈ 0.393 µg/mL). Moreover, the solubility in data set [2] (in 1 mM sulfated beta-cyclodextrin) came to 42 µM (≈ 12.7 µg/mL); in data set [2] (in 2 mM sulfated beta-cyclodextrin) it was 73 µM (≈ 22.1 µg/mL).
